System: Serex 51A93
Test: ELISA plate inhibition studies of Serex 51A93 by calibrators (Osteomark BCE, Metra free pyridinoline)
Type: binding
Procedure: The immunoreactivities of 51A93 and 1H11 with the calibrators and ELISA plates in the Osteomark kit and Pyrilinks Metra kit were compared. Two studies were carried out using ELISA plate assays.
In the first study, BCE calibrators from the Osteomark Kit and free pyridinoline (Pyd) from Metra were tested at different concentrations to see if either of them inhibits 51A93. Abbreviations are BCE, bone collagen equivalents; %Bo, percent bound at 0 concentration of analyte (as analyte in sample binds to antibody, the percent Bo decreases).

N[C@@H](CC[C@@H](O)C[n+]1cc(O)c(C[C@H](N)C(=O)O)c(CC[C@H](N)C(=O)O)c1)C(=O)[O-] [Pyd, pyridinoline]
% B0 (Pyd 0.001 mg/ml): 87%
A 450 (Pyd 0.001 mg/ml): 1,302
% B0 (Pyd 0.01 mg/ml): 85%
A 450 (Pyd 0.01 mg/ml): 1,275
% B0 (Pyd 0.1 mg/ml): 89%
A 450 (Pyd 0.1 mg/ml): 1,327
% B0 (Pyd 1 mg/ml): 83%
A 450 (Pyd 1 mg/ml): 1,249
inhibition of Mab 51A93 by calibrator (even at high levels): slightly inhibited

Reference: patent US6465655B1, “Antibody to and assay for peptide linked-pyridinoline as indicator of bone resorption level” (Serex, Inc., priority 1997, dated 2002)
